Experimental data as given in ChEMBL document CHEMBL3808279, “Sequential one-pot synthesis of bis(indolyl)glyoxylamides: Evaluation of antibacterial and anticancer activities” (Bioorg Med Chem Lett, 2016).
In brackets after ≈: the same amount, converted by molar mass. Activity calls are given as the source filed them. The rule behind the calls is not given here.

Columns and labels:
Escherichia coli [1] = assay: Antibacterial activity against Escherichia coli after 18 to 24 hrs by microbroth dilution method; type: functional; conditions: for MIC: Escherichia coli; as to IZ: test concentration or dose not given here
Pseudomonas putida [2] = assay: Antibacterial activity against Pseudomonas putida after 18 to 24 hrs by microbroth dilution method; type: functional; conditions: for MIC: Pseudomonas putida; as to IZ: test concentration or dose not given here
Klebsiella pneumoniae = assay: Antibacterial activity against Klebsiella pneumoniae after 18 to 24 hrs by microbroth dilution method; type: functional; conditions: for MIC: Klebsiella pneumoniae; as to IZ: test concentration or dose not given here
Bacillus subtilis [3] = assay: Antibacterial activity against Bacillus subtilis after 18 to 24 hrs by microbroth dilution method; type: functional; conditions: for MIC: Bacillus subtilis; as to IZ: test concentration or dose not given here
Staphylococcus aureus [4] = assay: Antibacterial activity against Staphylococcus aureus after 18 to 24 hrs by microbroth dilution method; type: functional; conditions: for MIC: Staphylococcus aureus; as to IZ: test concentration or dose not given here
MDA-MB-231 = assay: Cytotoxicity against human MDA-MB-231 cells after 48 hrs by MTT assay; type: functional, cell-based; conditions: MDA-MB-231, 48 h
[5] = Cytotoxicity against human PC3 cells after 48 hrs by MTT assay; type: functional, cell-based; conditions: PC-3, 48 h
HeLa = assay: Cytotoxicity against human HeLa cells after 48 hrs by MTT assay; type: functional, cell-based
[6] = Cytotoxicity against human C4-2 cells after 48 hrs by MTT assay; type: functional, cell-based; conditions: LNCaP C4-2, 48 h
[7] = Cytotoxicity against human HEK293T cells after 48 hrs by MTT assay; type: cell-based; conditions: HEK-293T
[8] = Cytotoxicity against human BxPC3 cells after 48 hrs by MTT assay; type: functional, cell-based; conditions: BXPC-3, 48 h
PC-3 = assay: Induction of apoptosis in human PC3 cells assessed as increase in cleaved PARP1 level after 48 hrs by immunoblot analysis; type: functional, cell-based
Escherichia coli [9] = assay: Bactericidal activity against Escherichia coli at 3 times MIC after 2 hrs by time-kill analysis; type: functional
Pseudomonas putida [10] = assay: Bactericidal activity against Pseudomonas putida at 3 times MIC after 2 hrs by time-kill analysis; type: functional
Bacillus subtilis [11] = assay: Bactericidal activity against Bacillus subtilis at 3 times MIC after 2 hrs by time-kill analysis; type: functional
Staphylococcus aureus [12] = assay: Bactericidal activity against Staphylococcus aureus at 3 times MIC after 2 hrs by time-kill analysis; type: functional
[13] = Stability of compound at pH 4.5 up to 48 hrs by HPLC analysis; type: physicochemical; conditions: buffer, pH 4.5, 48 h
[14] = Stability of compound at pH 7.4 up to 48 hrs by HPLC analysis; type: physicochemical; conditions: buffer, pH 7.4, 48 h
Escherichia coli [15] = assay: Bactericidal activity against Escherichia coli assessed as maximum bactericidal reduction at 3 times MIC after 3 hrs by time-kill analysis; type: functional, organism-based
Pseudomonas putida [16] = assay: Bactericidal activity against Pseudomonas putida assessed as maximum bactericidal reduction at 3 times MIC after 3 hrs by time-kill analysis; type: functional, organism-based

Compound	inhibition zone (IZ) (Escherichia coli [1]) [mm]	MIC (Escherichia coli [1]) [µg/mL]	inhibition zone (IZ) (Pseudomonas putida [2]) [mm]	MIC (Pseudomonas putida [2]) [µg/mL]	inhibition zone (IZ) (Klebsiella pneumoniae) [mm]	MIC (Klebsiella pneumoniae) [µg/mL]	inhibition zone (IZ) (Bacillus subtilis [3]) [mm]	MIC (Bacillus subtilis [3]) [µg/mL]	inhibition zone (IZ) (Staphylococcus aureus [4]) [mm]	MIC (Staphylococcus aureus [4]) [µg/mL]	IC50 (MDA-MB-231) [µM]	IC50 [5] [µM]	IC50 (HeLa) [µM]	IC50 [6] [µM]	IC50 [7] [µM]	IC50 [8] [µM]	also measured
O=C(NCCc1c[nH]c2ccccc12)C(=O)c1c[nH]c2ccc(Br)cc12	16	50 (≈ 122 µM)	14	100 (≈ 244 µM)	15	100 (≈ 244 µM)	14	100 (≈ 244 µM)	15	> 100	> 100	> 100	> 100	> 100	> 100	> 100	–
COc1cccc2c1C(=O)c1c(O)c3c(c(O)c1C2=O)C[C@@](O)(C(=O)CO)C[C@@H]3O[C@H]1C[C@H](N)[C@H](O)[C@H](C)O1 [DOXORUBICIN]	–	–	–	–	–	–	–	–	–	–	–	9.5	–	1.85	3.1	13	–
COc1ccc2[nH]cc(C(=O)C(=O)CCCc3c[nH]c4ccccc34)c2c1	15	100 (≈ 277 µM)	15	100 (≈ 277 µM)	15	50 (≈ 139 µM)	–	–	–	–	> 100	> 100	> 100	> 100	> 100	> 100	–
O=C(NCCc1c[nH]c2ccccc12)C(=O)c1c[nH]c2ccccc12	15	50 (≈ 151 µM)	14	50 (≈ 151 µM)	14	100 (≈ 302 µM)	15	50 (≈ 151 µM)	15	50 (≈ 151 µM)	48.7	38.5	48.9	71.5	97.7	64	Activity (PC-3): Active
O=C(NCCc1c[nH]c2ccccc12)C(=O)c1cn(Cc2ccc(Cl)cc2)c2ccccc12	18	12.5 (≈ 27.4 µM)	18	12.5 (≈ 27.4 µM)	18	> 12.5	17	> 25	17	> 25	> 100	> 100	> 100	> 100	> 100	> 100	Activity (Escherichia coli [9]): 80%; Activity (Pseudomonas putida [10]): 80%; Activity (Bacillus subtilis [11]): >80%; Activity (Staphylococcus aureus [12]): >65%; Stability [13]: Stable; Stability [14]: Stable; Activity (Escherichia coli [15]): Active; Activity (Pseudomonas putida [16]): Active
O=C(NCCc1c[nH]c2ccccc12)C(=O)c1cn(Cc2ccc(F)cc2)c2ccccc12	15	100 (≈ 228 µM)	15	100 (≈ 228 µM)	13	> 100	12	> 100	14	> 100	> 100	> 100	> 100	> 100	> 100	> 100	–
COc1ccc2c(C(=O)C(=O)NCCc3c[nH]c4ccccc34)c[nH]c2c1	14	> 50	15	> 50	15	100 (≈ 277 µM)	15	> 100	14	100 (≈ 277 µM)	> 100	> 100	> 100	> 100	> 100	> 100	–
Cn1cc(C(=O)C(=O)NCCc2c[nH]c3ccccc23)c2ccccc21	18	12.5 (≈ 36.2 µM)	17	> 25	17	25 (≈ 72.4 µM)	18	> 25	16	50 (≈ 145 µM)	> 100	> 100	> 100	> 100	> 100	> 100	Activity (Escherichia coli [9]): 80%; Activity (Pseudomonas putida [10]): 80%; Activity (Bacillus subtilis [11]): >80%; Activity (Staphylococcus aureus [12]): >65%; Stability [13]: Stable; Stability [14]: Stable; Activity (Escherichia coli [15]): Active; Activity (Pseudomonas putida [16]): Active
COc1ccc2c(C(=O)C(=O)NCCc3c[nH]c4ccccc34)cn(Cc3ccc(Cl)cc3)c2c1	15	50 (≈ 103 µM)	16	50 (≈ 103 µM)	15	> 50	–	–	–	–	> 100	> 100	> 100	> 100	> 100	> 100	–
O=C(N[C@H](CO)[C@H](O)c1ccc([N+](=O)[O-])cc1)C(Cl)Cl [CHLORAMPHENICOL]	22	–	21	–	20	–	22	–	21	–	–	–	–	–	–	–	–
